Measurements taken from the NIST ThermoML archive (doi:10.1021/je4004977).

Conditions: for viscosity / mass density: 101.33 kPa; for viscosity / mass density / vapor or sublimation pressure: Liquid; for viscosity: Capillary tube (Ostwald / Ubbelohde) method; for surface tension liquid-gas: Drop volume; for mass density: Pycnometric method; for vapor or sublimation pressure: Closed cell (Static) method

CC(O)COC(C)COC(C)COC(C)CO (stereo not drawn) [2-[2-[2-(2-hydroxypropoxy)propoxy]propoxy]-1-propanol]
Conditions	mass density [kg/m3]	surface tension liquid-gas [mN/m]	vapor or sublimation pressure [kPa]	viscosity [mPa·s]
288.15 K	–	–	–	105.44
293.15 K	–	–	–	67.81
298.15 K	1019.6	34.3	–	–
299.15 K	–	–	–	44.89
303.15 K	–	–	–	35.66
308.15 K	1013.7	33.4	–	27.85
313.15 K	–	–	–	22.48
318.15 K	1007.9	32.6	–	17.97
323.15 K	–	–	–	14.32
328.15 K	1001.3	31.8	–	11.58
333.15 K	–	–	–	9.39
338.15 K	995.4	–	–	7.65
344.15 K	–	–	–	6.04
348.15 K	988.8	30.2	–	5.22
353.15 K	985.1	–	–	4.42
358.15 K	982.5	–	–	3.84
363.15 K	979	–	–	3.38
368.15 K	975.5	28.5	–	3
373.15 K	–	–	–	2.62
378.15 K	–	27.7	–	2.28
383.15 K	965.4	–	–	1.9
388.15 K	–	–	–	1.48
393.15 K	958.7	–	–	1.02
398.15 K	–	26.1	–	–
403.15 K	951.4	–	–	–
408.15 K	–	25.2	–	–
409.85 K	–	–	0.01	–
413.15 K	944.3	–	–	–
418.15 K	–	24.4	–	–
423.15 K	937	–	–	–
428.15 K	–	23.6	–	–
433.15 K	928.9	–	–	–
438.15 K	–	22.7	–	–
443.15 K	919.4	–	–	–
448.15 K	–	21.9	–	–
458.15 K	–	21.1	–	–
462.55 K	–	–	2.68	–
468.15 K	–	20.2	–	–
480.15 K	–	–	5.34	–
486.15 K	–	–	6.66	–
492.15 K	–	–	8.02	–
500.15 K	–	–	10.72	–
507.15 K	–	–	13.36	–
513.15 K	–	–	16.05	–
518.15 K	–	–	18.79	–
522.15 K	–	–	21.34	–
527.15 K	–	–	24.02	–
530.15 K	–	–	26.71	–
537.15 K	–	–	32.05	–
543.15 K	–	–	37.42	–
545.15 K	–	–	40.02	–
550.15 K	–	–	45.37	–
554.15 K	–	–	50.69	–
556.15 K	–	–	53.36	–
560.15 K	–	–	58.74	–
564.15 K	–	–	64.02	–
567.15 K	–	–	69.28	–
570.15 K	–	–	74.63	–
575.15 K	–	–	83.34	–
582.15 K	–	–	101.02	–
